Measurements taken from patent US20240279218A1 (Hoffmann-La Roche Inc., priority 2016, published 2024).
Read-outs that look alike come from different tables or passages of the source.

What was measured:
h-GABA-A α5β3γ2 [1] = biological target: T1, h-GABA-A α5β3γ2 (Homo sapiens (Human), UniProt P18507+P31644); assay: Two-electrode voltage clamp electrophysiology in Xenopus oocytes expressing GABAA receptors, modulation of GABA EC20 current; type: cell-based
How it was run: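 Values are % modulation of an EC20 GABA response, derived point by point from the ratio of compound-exposed versus control current traces (extremum taken, 100×(fold−1)). Recordings used oocytes injected with human α5, β3, γ2 mRNA, clamped at −80 mV at room temperature, at least 3 oocytes each.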

h-GABA-A α5β3γ2 [2] = biological target: T1, h-GABA-A α5β3γ2; assay: [3H]flumazenil competition binding assay, membranes of HEK293 cells expressing human GABAA receptors
How it was run: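 Membranes were prepared from HEK293 cells with transient human α5β3γ2 expression and assayed in Krebs-tris, pH 7.5. Bound radioactivity measured on filters by liquid scintillation.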

[3] = % modulation of GABA EC20 = 100*(Fold increase−1), Xenopus oocytes
[4] = Xenopus oocytes, GABA EC20, test compound at approx. 30 fold its Ki
[5] = displacement of [3H]flumazenil 0.5 nM, HEK293 cells expressing human receptors, mean of two determinations, read-out: Ki h-GABA-A α5β3γ2

SMILES	Efficacy (GABA) % (h-GABA-A α5β3γ2 [1]; [3]) [%]	Fold increase h-GABA-A α5β3γ2 oocyte (h-GABA-A α5β3γ2 [1]; [4])	Ki (h-GABA-A α5β3γ2 [2]; [5]) [nM]	Efficacy (GABA) % (h-GABA-A α5β3γ2 [1]; reference compounds, % modulation of GABA EC20)	Fold increase h-GABA-A α5β3γ2 oocyte (h-GABA-A α5β3γ2 [1]; reference compounds, GABAA α5β3γ2 overexpressing oocytes, GABA EC20)	Ki (h-GABA-A α5β3γ2 [2]; reference compounds, GABAA receptor α5β3γ2, read-out: Ki α5-human) [nM]
Cc1ccc(-c2noc(C)c2COc2ccc(C(=O)N3CC(C)(O)C3)nn2)cn1 [Example 56, (3-hydroxy-3-methylazetidin-1-yl)(6-((5-methyl-3-(6-methylpyridin-3-yl)isoxazol-4-yl)methoxy)pyridazin-3-yl)methanone]	64	1.64	7.9	–	–	–
Cc1ccc(-c2noc(C)c2COc2cnc(C(=O)N[C@H]3CC[C@](C)(O)CC3)cn2)cn1 [Example 105, N-(trans-4-hydroxy-4-methylcyclohexyl)-5-((5-methyl-3-(6-methylpyridin-3-yl)isoxazol-4-yl)methoxy)pyrazine-2-carboxamide]	101	2.01	22.7	–	–	–
Cc1ccc(-c2noc(C)c2COc2ccc(C(=O)N3CC4(C3)CC(F)(F)C4)nn2)cn1 [Example 155, (6,6-difluoro-2-azaspiro[3.3]heptan-2-yl)(6-((5-methyl-3-(6-methylpyridin-3-yl)isoxazol-4-yl)methoxy)pyridazin-3-yl)methanone]	46	1.46	15.4	–	–	–
Cc1ccc(-c2noc(C)c2COc2cnc(C(=O)NCCO)cn2)cn1 [Example 90, N-(2-Hydroxyethyl)-5-((5-methyl-3-(6-methylpyridin-3-yl)isoxazol-4-yl)methoxy)pyrazine-2-carboxamide]	37	1.37	16.7	–	–	–
Cc1ccc(-c2noc(C)c2COc2ccc(C(=O)N[C@H]3CCCC(F)(F)[C@@H]3O)cn2)cn1 [Example 133, N-((1S,2R)-3,3-difluoro-2-hydroxycyclohexyl)-6-((5-methyl-3-(6-methylpyridin-3-yl)isoxazol-4-yl)methoxy)pyridine-3-carboxamide]	95	1.95	43.1	–	–	–
Cc1ccc(-c2noc(C)c2COc2ccc(C(=O)N3CC4(C3)CS(=O)(=O)C4)nn2)cn1 [Example 112, (2,2-dioxido-2-thia-6-azaspiro[3.3]heptan-6-yl)(6-((5-methyl-3-(6-methylpyridin-3-yl)isoxazol-4-yl)methoxy)pyridazin-3-yl)methanone]	43	1.43	6.5	–	–	–
Cc1onc(-c2ccc(Cl)cn2)c1COc1ccc(C(=O)NC2CCOCC2)nn1 [RE-B, 6-((3-(5-chloro-2-pyridyl)-5-methyl-isoxazol-4-yl)methoxy)-N-tetrahydropyran-4-yl-pyridazine-3-carboxamide, reference compound]	–	–	–	+3%	1.03	0.4
Cc1ccc(-c2noc(C)c2COc2ccc(C(=O)N3CCC3)nn2)cn1 [Example 57, azetidin-1-yl(6-((5-methyl-3-(6-methylpyridin-3-yl)isoxazol-4-yl)methoxy)pyridazin-3-yl)methanone]	64	1.64	7.2	–	–	–
Cc1ccc(-c2noc(C)c2COc2cc3c(cn2)C(=O)N(C2CCOCC2)C3)cn1 [Example 22, 6-((5-methyl-3-(6-methylpyridin-3-yl)isoxazol-4-yl)methoxy)-2-(tetrahydro-2H-pyran-4-yl)-1H-pyrrolo[3,4-c]pyridin-3(2H)-one]	44	1.44	10.8	–	–	–
Cc1ccc(-c2noc(C)c2COc2ccc(C(N)=O)nn2)cn1 [Example 18, 6-((5-methyl-3-(6-methylpyridin-3-yl)isoxazol-4-yl)methoxy)pyridazine-3-carboxamide]	59	1.59	10.2	–	–	–
Cc1ccc(-c2noc(C)c2COc2ccc(C(=O)N[C@H]3C[C@@H](OC4CC4)C3)nn2)cn1 [Example 176, cis-N-(3-cyclopropoxycyclobutyl)-6-((5-methyl-3-(6-methylpyridin-3-yl)isoxazol-4-yl)methoxy)pyridazine-3-carboxamide]	64	1.64	12.7	–	–	–
Cc1ccc(-c2noc(C)c2COc2cnc(C(=O)NC3CCS(=O)(=O)C3)cn2)cn1 (stereo not drawn) [Example 94, N-(1,1-dioxothiolan-3-yl)-5-((5-methyl-3-(6-methylpyridin-3-yl)-1,2-oxazol-4-yl)methoxy)pyrazine-2-carboxamide]	92	1.92	10	–	–	–
CCO[C@H]1C[C@H](NC(=O)c2ccc(OCc3c(-c4ccc(C)nc4)noc3C)nn2)C1 [Example 172, trans-N-(3-ethoxycyclobutyl)-6-((5-methyl-3-(6-methylpyridin-3-yl)isoxazol-4-yl)methoxy)pyridazine-3-carboxamide]	65	1.65	8.8	–	–	–
COc1ccc(-c2noc(C)c2COc2ccc(C(=O)N3CCS(=O)(=O)CC3)cn2)cn1 [Example 140, (1,1-dioxidothiomorpholino)(6-((3-(6-methoxypyridin-3-yl)-5-methylisoxazol-4-yl)methoxy)pyridin-3-yl)methanone]	13	1.13	56	–	–	–
Cc1ccc(-c2noc(C)c2COc2ccc(C(=O)NC3COC3)nn2)cn1 [Example 35, 6-((5-methyl-3-(6-methylpyridin-3-yl)isoxazol-4-yl)methoxy)-N-(oxetan-3-yl)pyridazine-3-carboxamide]	82	1.82	4.4	–	–	–
Cc1ccc(-c2noc(C)c2COc2ccc(C(=O)NC3(C)CCSCC3)nn2)cn1 [Example 110, 6-((5-methyl-3-(6-methylpyridin-3-yl)isoxazol-4-yl)methoxy)-N-(4-methyltetrahydrothiopyran-4-yl)pyridazine-3-carboxamide]	65	1.65	15.5	–	–	–
COC1CN(C(=O)c2ccc(OCc3c(-c4ccc(C)nc4)noc3C)nn2)C1 [Example 55, (3-methoxyazetidin-1-yl)(6-((5-methyl-3-(6-methylpyridin-3-yl)isoxazol-4-yl)methoxy)pyridazin-3-yl)methanone]	57	1.57	8.6	–	–	–
Cc1ccc(-c2noc(C)c2COc2ccc(C(=O)N[C@H]3CC4CCC3O4)nn2)cn1 (stereo partly drawn) [Example 186, N-((2S)-7-oxabicyclo[2.2.1]heptan-2-yl)-6-((5-methyl-3-(6-methylpyridin-3-yl)isoxazol-4-yl)methoxy)pyridazine-3-carboxamide]	72	1.72	16.6	–	–	–
Cc1ccc(-c2noc(C)c2COc2ccc(C(=O)NC3CC4(COC4)C3)nn2)cn1 [Example 100, 6-((5-methyl-3-(6-methylpyridin-3-yl)isoxazol-4-yl)methoxy)-N-(2-oxaspiro[3.3]heptan-6-yl)pyridazine-3-carboxamide]	70	1.7	8.5	–	–	–
